Experimental data from PMC10633902, “Investigating the antimicrobial activity, cytotoxicity, and action mechanism of acylated and amidated derivatives of AurH1 antifungal peptide” (BMC Microbiology, 2023).
Where two headings read alike, the source gives them in different places. No end group written: not given here.

Legend:
human red blood cells = type: cell-based; details: 1 h
Experimental: A hemolytic assay was performed to investigate the effects of peptides on human red blood cells. First, 5 ml of fresh human blood was taken from a volunteer. After that, 20% (v/v) suspension of human erythrocytes was prepared and diluted in PBS (1:20). Next, 100 µL of this blood suspension was added in triplicate to 100 µL of a 2-fold serial dilution series of the peptide in a 96‐well plate. 1% Triton-X 100 was used as a positive control to lyse 100% of RBCs, and sterile 0.9% NaCl solution was used as a negative control. Then the plates were incubated at 37 °C for 1 h and centrifuged at 3500 rpm for 10 min. Next, 100 µL of the supernatant was transferred to a new 96-well plate to measure the absorbance at 414 nm using a microplate reader (STAT FAX 2100, BioTek, Winooski, USA). Finally, the percentage of hemolysis was calculated as follows: […]

C. albicans [1] = test: Killing kinetic assay (time of killing); type: cell-based, Candida albicans; details: 1X MIC concentration
C. albicans [2] = test: Ergosterol binding assay (MIC in presence and absence of ergosterol); type: cell-based, Candida albicans
Experimental: An ergosterol binding assay was performed to measure the binding potency of peptides to fungal membrane sterols. For this purpose, the ergosterol was dissolved in DMSO and Tween-20, it was heated to increase the solubility of the formed emulsion and diluted in an SDB medium at a concentration of […] and incubated at 37 °C for 1 h. After that, MIC of the AurH1, Ac-AurH1, and AurH1-NH2 peptides was measured by the micro-dilution method in the presence and absence of ergosterol in different concentrations ([…]) against C. albicans.

C. albicans [3] = test: Effect of salts and human serum on antimicrobial activity (MIC); type: cell-based, Candida albicans
Experimental: To evaluate the effect of salts and human serum on the antimicrobial activity of the AurH1-NH2 and AurH1 peptides, their antimicrobial activity (MICs values) against C. albicans under different conditions containing salt and human serum was determined. Therefore, mid-logarithmic phase yeasts diluted to 5 × 10^5 CFU/ml in SDB were added to related media containing different concentrations of human serum (10%, 20%, and 30%) and salts (150 mM NaCl and 1mM MgCl2), and incubated at 37 °C for 24 h.

[4] = system: Staphylococcus aureus (ATCC 25,923); design: method as in our previous study [6]; details: S. aureus; ref our previous study [6]; cited from earlier work
[5] = system: Escherichia coli (ATCC 25,922); design: method as in our previous study [6]; details: E. coli; ref our previous study [6]; cited from earlier work
[6] = system: Candida albicans (ATCC 10,231); design: method as in our previous study [6]; details: C. albicans; ref our previous study [6]; cited from earlier work
[7] = system: Candida glabrata (ATCC 90,030); design: method as in our previous study [6]; details: C. glabrata; ref our previous study [6]; cited from earlier work
[8] = system: Candida krusei (ATCC 28,870); design: method as in our previous study [6]; details: C. krusei; ref our previous study [6]; cited from earlier work
[9] = system: Aspergillus niger (ATCC 9142); design: method as in our previous study [6]; details: A. niger; ref our previous study [6]; cited from earlier work
[10] = system: Aspergillus flavus (ATCC 24,109); design: method as in our previous study [6]; details: A. flavus; ref our previous study [6]; cited from earlier work
C. albicans [11] = system: C. albicans; design: method as in PMID 31264322; details: cited from earlier work
[12] = system: Aspergillus flavus (ATCC 24,109); test: microbe, parasite or virus in culture; type: cell-based; details: ATCC 24, 24 h
Experimental: (§1) The human skin fibroblast (Hu02 cell) and human breast cancer cells (MDA-MB-231 and SKBR-3 cell lines) were purchased from the National Cell Bank of Iran, Pasture Institute of Ira) for cytotoxicity test. Antimicrobial effects of the Ac-AurH1, AurH1-NH2, and AurH1 against the selected bacteria and fungi were conducted using a standard serial dilution method in a 96-well microplate. For this purpose, the desired fungal and bacterial strains were grown overnight at 37 °C (Some of the fungi were incubated at 25 °C) in related media (SDA for fungi and MHA for bacteria). […] Next, serially diluted synthetic peptides in a volume of 100 μL were added to the microtitre plates, followed by 100 μL of bacteria and fungi to give a final inoculum of 5 × 10^5 colony-forming units (CFU)/ml (a 0.5 McFarland standard inoculum). […] In this test, penicillin and streptomycin antibiotics for bacteria and fluconazole, nystatin, and amphotericin B for fungal strains were used as antibiotic control. […] All tests were repeated three times independently.

[13] = system: Aspergillus niger (ATCC 9142); test: microbe, parasite or virus in culture; type: cell-based; details: ATCC 9142, 24 h
Experimental: as §1

[14] = system: Candida albicans (ATCC 10,231); test: microbe, parasite or virus in culture; type: cell-based; details: ATCC 10, 24 h
Experimental: as §1

[15] = system: Candida glabrata (ATCC 90,030); test: microbe, parasite or virus in culture; type: cell-based; details: ATCC 90, 24 h
Experimental: as §1

[16] = system: Candida krusei (ATCC 28,870); test: microbe, parasite or virus in culture; type: cell-based; details: ATCC 28, 24 h
Experimental: as §1

[17] = system: Escherichia coli (ATCC 25,922); test: microbe, parasite or virus in culture; type: cell-based; details: ATCC 25, 24 h
Experimental: as §1

[18] = system: Staphylococcus aureus (ATCC 25,923); test: microbe, parasite or virus in culture; type: cell-based; details: ATCC 25, 24 h
Experimental: as §1

[19] = system: Human skin fibroblast (Hu02 cells); type: cell-based
Experimental: Toxicity of peptides on Human skin fibroblast (Hu02 cells) and two human breast cancer cell lines (MDA-MB-231 and SKBR3 cell lines) measured by an MTT assay. At first, cell lines with a density of 1 × 10^5 cells were cultured in the wells of 96-well plates for 24 h under standard conditions (37 °C temperature, 5% CO2 atmosphere with 95% relative humidity). After that, the old medium was replaced with fresh medium (with 10% FBS) containing different peptide concentrations, and the cells were incubated for 24 h. A medium without peptide was used as a negative control. After 24 h of incubation and washing the wells with PBS, the medium (containing 10% FBS) was replaced with fresh medium containing 10% MTT solution (freshly prepared 5 mg/ml MTT in PBS), and the plate was incubated for four h in 5% CO2, at 37 °C. Next, the medium was removed from the wells, and 100 µL DMSO was added. Afterward, the plate was shaken to dissolve Formazan crystals. Finally, by a microplate reader (STAT FAX 2100, BioTek, Winooski, USA), the absorbance values were measured at a wavelength of 595 nm. The percentage of toxicity was calculated as follows: […]

C. albicans [20] = type: cell-based, Candida albicans
Experimental: (§2) The microbial inoculum was prepared based on broth micro-dilution assay to generate a concentration of fungi corresponding to 5 × 10^5 CFU/mL. […] The obtained results were analyzed in terms of the fractional inhibitory concentration index (FIC): [drawing 4] AMPs and antibiotics are antagonistic if FIC ≥ 4.0, indifference if > 1 FIC < 4.0, additive if > 0.5 FIC ≤ 1, and synergism if FIC ≤ 0.5.

C. glabrata = type: cell-based, Candida glabrata
Experimental: as §2

C. krusei = type: cell-based, Candida krusei
Experimental: as §2

C. albicans [21] = test: FE-SEM of C. albicans surface after peptide treatment; type: cell-based, Candida albicans; details: 0.5 X MIC
Experimental: At first, C. albicans were cultured in broth media. Next, yeasts were deposited by centrifugation (4000 rpm for 1 min) and washed (Three times) with PBS (pH 7.4). […] The samples were centrifuged at 4000 rpm for 1 min, washed three times in PBS, and put on the glass slides (1cm2). Subsequently, cells were dehydrated with ethanol gradient (at 10, 30, 60, 70, and 90%). After that, the dehydrated cells were dissolved in 100% ethanol for 15 min and dried at room temperature (25 °C). Finally, C. albicans cells were coated with gold nanoparticles by an automatic sputter coater and observed using an FE-SEM instrument (JSM-7610 F, JEOL Co., Japan and MIRA3, TESCAN Co., Czech).

[22] = after treatment with Ergosterol (Erg)
[23] = before treatment with Ergosterol (substance alone)
[24] = in combination with amphotericin B (Amph)
[25] = in combination with fluconazole (Flu)
[26] = in combination with nystatin (Nys)

## WFKIIKK [AurH1, WFKIIKK]
Human red blood cells
  HC50 (concentration that lyses 50% of red blood cells): 13,484 µg/ml
C. albicans [1]
  time to kill all C. albicans (maximum fungicidal effect): 24 h
C. albicans [2]; [22]
  MIC: 15.6 µg/mL
C. albicans [2]; [23]
  MIC: 15.6 µg/mL
C. albicans [3]; SDB
  MIC: 15.6 µg/mL
C. albicans [3]; SDB + 10% serum (human)
  MIC: 15.6 µg/mL
C. albicans [3]; SDB + 20% serum (human)
  MIC: 62.5 µg/mL
C. albicans [3]; SDB + 30% serum (human)
  MIC: 125 µg/mL
C. albicans [3]; SDB + MgCl2 (1 mM)
  MIC: 15.6 µg/mL
C. albicans [3]; SDB + NaCl (150 mM)
  MIC: 15.6 µg/mL
[4]
  MIC: > 1000 µg/mL
[5]
  MIC: > 1000 µg/mL
[6]
  MBC (MFC): 125 µg/mL
  MIC: 15.625 µg/mL
[7]
  MBC (MFC): 500 µg/mL
  MIC: 125 µg/mL
[8]
  MBC (MFC): 250 µg/mL
  MIC: 31.25 µg/mL
[9]
  MBC (MFC): 500 µg/mL
  MIC: 125 µg/mL
[10]
  MIC: > 1000 µg/mL
C. albicans [11]; in combination with amphotericin B
  combinatorial effect (in words): synergistic effects
C. albicans [11]; in combination with fluconazole
  combinatorial effect (in words): synergistic effects

## H-WFKIIKK-NH2 [AurH1-NH2, WFKIIKK-NH2]
[12]
  MBC (MFC): 1000 µg/mL
  MIC: 250 µg/mL
[13]
  MBC (MFC): 500 µg/mL
  MIC: 125 µg/mL
[14]
  MBC (MFC): 62.50 µg/mL
  MIC: 7.81 µg/mL
[15]
  MBC (MFC): 62.5 µg/mL
  MIC: 62.5 µg/mL
[16]
  MBC (MFC): 31.25 µg/mL
  MIC: 7.81 µg/mL
[17]
  MIC: > 1000 µg/mL
[18]
  MIC: > 1000 µg/mL
[19]
  toxicity: no significant toxicity
Human red blood cells
  HC50 (concentration that lyses 50% of red blood cells): 14,246 µg/ml
C. albicans [1]
  time to kill all C. albicans (maximum fungicidal effect): 12 h
C. albicans [20]; [24]
  Interpretation: Synergy (synergism if FIC ≤ 0.5)
C. albicans [20]; [25]
  Interpretation: Indifference (indifference if > 1 FIC < 4.0)
C. albicans [20]; [26]
  Interpretation: Indifference (indifference if > 1 FIC < 4.0)
C. glabrata; [24]
  Interpretation: Synergy (synergism if FIC ≤ 0.5)
C. glabrata; [25]
  Interpretation: Indifference (indifference if > 1 FIC < 4.0)
C. glabrata; [26]
  Interpretation: Antagonist (antagonistic if FIC ≥ 4.0)
C. krusei; [24]
  Interpretation: Synergy (synergism if FIC ≤ 0.5)
C. krusei; [25]
  Interpretation: Indifference (indifference if > 1 FIC < 4.0)
C. krusei; [26]
  Interpretation: Antagonist (antagonistic if FIC ≥ 4.0)
C. albicans [2]; [22]
  MIC: 7.81 µg/mL
C. albicans [2]; [23]
  MIC: 7.81 µg/mL
C. albicans [3]; SDB
  MIC: 7.81 µg/mL
C. albicans [3]; SDB + 10% serum (human)
  MIC: 7.81 µg/mL
C. albicans [3]; SDB + 20% serum (human)
  MIC: 7.81 µg/mL
C. albicans [3]; SDB + 30% serum (human)
  MIC: 15.6 µg/mL
C. albicans [3]; SDB + MgCl2 (1 mM)
  MIC: 7.81 µg/mL
C. albicans [3]; SDB + NaCl (150 mM)
  MIC: 7.81 µg/mL
C. albicans [21]; after 2 h
  surface morphology change (FE-SEM): shrinkages in cell-surface
C. albicans [21]; after 4 h
  surface morphology change (FE-SEM): increase was seen in the amount of cell surface shrinkage and cell roughening
C. albicans [21]; after 6 h
  surface morphology change (FE-SEM): blisters and surface pores on the cell surface were created
